Columns and labels:
[1] = Ratio of Trolox IC50 to compound IC50 for FeCl2-induced lipid peroxidation; assay type: physicochemical
[2] = biological target: T1, Tyrosinase (Agaricus bisporus, UniProt O42713)
T1 sequence (O42713 whole entry): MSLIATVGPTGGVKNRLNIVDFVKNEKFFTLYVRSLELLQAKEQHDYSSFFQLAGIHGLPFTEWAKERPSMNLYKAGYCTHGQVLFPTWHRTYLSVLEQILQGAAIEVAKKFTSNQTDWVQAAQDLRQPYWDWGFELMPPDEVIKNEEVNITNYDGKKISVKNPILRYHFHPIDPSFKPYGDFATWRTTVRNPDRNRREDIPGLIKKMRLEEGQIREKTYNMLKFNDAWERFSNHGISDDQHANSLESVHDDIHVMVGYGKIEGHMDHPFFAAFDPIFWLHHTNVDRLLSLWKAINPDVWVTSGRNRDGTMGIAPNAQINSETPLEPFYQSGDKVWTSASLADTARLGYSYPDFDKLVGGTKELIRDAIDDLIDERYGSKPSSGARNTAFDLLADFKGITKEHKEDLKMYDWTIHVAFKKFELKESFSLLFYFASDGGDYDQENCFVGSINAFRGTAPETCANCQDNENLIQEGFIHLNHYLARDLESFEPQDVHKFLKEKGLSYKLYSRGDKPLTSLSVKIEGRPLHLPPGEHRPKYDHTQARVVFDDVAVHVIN
Description: Inhibition of mushroom tyrosinase activity after 30 mins by spectrophotometry

[3] = biological target: T1, Tyrosinase; remark: listed apart in the source
Description: Inhibition of mushroom tyrosinase activity after 90 mins by spectrophotometry

[4] = biological target: T1, Tyrosinase; remark: listed apart in the source
Description: Inhibition of mushroom tyrosinase activity after 150 mins by spectrophotometry

[5] = test system: Radical scavenging activity
Description: Antioxidant activity assessed as DPPH radical scavenging activity incubated at 40 degC in dark after 30 mins

[6] = Ratio of Trolox IC50 to compound IC50 for DPPH radical scavenging activity
[7] = Ratio of Trolox IC50 to compound IC50 for ABTS radical scavenging activity

| Structure (SMILES) | Ratio IC50 [1] | IC50 [2] | IC50 [3] | IC50 [4] | IC50 [5] | Ratio IC50 [6] | Ratio IC50 [7] |
| --- | --- | --- | --- | --- | --- | --- | --- |
| COc1ccc(CC(=O)c2ccc(O)c(O)c2O)cc1OC | 5 | 229 µM | 132 µM | 140 µM | 4.34 µM |  |  |
| COc1ccc(CC(=O)c2ccc(O)c(O)c2)cc1OC |  |  |  |  | 2.53 µM |  |  |
| COc1ccc(CC(=O)c2ccc(O)c(O)c2O)cc1 |  | > 300 µM | 203 µM | 212 µM | 21.6 µM |  |  |
| O=C1O[C@H]([C@@H](O)CO)C(O)=C1O [ASCORBIC ACID] |  |  |  |  | 73.7 µM |  |  |
| COc1cc(O)c(C(=O)Cc2ccccc2)cc1O |  |  |  |  | 20.3 µM |  |  |
| O=C(Cc1ccc(O)cc1)c1cc(O)c(O)cc1O |  |  |  |  | 0.69 µM | 13 |  |
| COc1ccc(CC(=O)c2cc(O)c(C)c(C)c2O)cc1 |  |  |  |  | 21.9 µM |  |  |
| COc1ccc(CC(=O)c2ccc(O)c(O)c2)cc1 |  | > 300 µM | 168 µM | 178 µM | 75.9 µM |  |  |
| COc1ccc(CC(=O)c2ccc(O)cc2O)cc1OC |  | 112 µM | 209 µM | 240 µM | 35.1 µM |  |  |
| COc1ccc(CC(=O)c2c(O)cc(O)cc2O)cc1 |  | 71 µM | 214 µM | 230 µM | 10.8 µM |  |  |
| Cc1c(C)c2c(c(C)c1O)CCC(C)(C(=O)O)O2 (stereo not given) [TROLOX] |  |  |  |  | 9.2 µM |  |  |
| O=C(Cc1ccccc1)c1c(O)cc(O)cc1O |  |  |  |  | 12.2 µM |  |  |
| O=C(Cc1ccc(O)cc1)c1ccc(O)cc1O |  | 178 µM | 136 µM | 172 µM | 25.2 µM |  |  |
| COc1ccc(CC(=O)c2c(O)cc(O)cc2O)cc1OC |  |  |  |  | 1.35 µM |  |  |
| COc1ccc(CC(=O)c2ccc(O)cc2O)cc1 [ONONETIN] |  | 78.9 µM | 160 µM | 181 µM | 57.4 µM |  |  |
| O=C(Cc1ccc(O)cc1)c1ccc(O)c(O)c1O |  | > 300 µM | > 300 µM | > 500 µM | 5.69 µM |  | 10 |
| COc1ccc(C(=O)Cc2ccc(O)cc2)c(O)c1O |  | 43.4 µM | 43.1 µM | 46.1 µM | 25.7 µM |  |  |
| O=C(Cc1ccc(O)cc1)c1c(O)cc(O)cc1O |  | > 300 µM | > 300 µM | 261 µM | 22.8 µM |  |  |
| COc1ccc(CC(=O)c2cc(O)c(O)cc2O)cc1 |  | 84.4 µM | 144 µM | 197 µM | 21.5 µM |  |  |
